# Assay: in vitro
# Details: human, hela cells, % viability
row,SMILES,"viability at 28.5 h, 10 µM [%]"
1,Cc1c(NC(=O)c2ccc3c(c2)C(=O)N(Cc2ccco2)C3=O)cccc1C(=O)O [CBK268627],92.9
2,O=[N+]([O-])c1cccc(C(Nc2cccnc2)c2cc(Cl)c3cccnc3c2O)c1 (stereo not shown) [CBK268629],93.7
3,Cc1ccc(S(=O)(=O)Cc2ccc(C(=O)NCc3ccco3)cc2)cc1 [CBK268630],105
4,NCCCNCCOc1ccc(Cl)c(Cl)c1 [CBK268631C],111
5,CC(O)CNCCCOc1ccccc1-c1ccccc1 (stereo not shown) [CBK268633G],97.6
6,CC(C)(C)C1CCc2c(sc(NC(=S)NC(=O)c3cc4ccccc4o3)c2C(N)=O)C1 (stereo not shown) [CBK268635],95
7,Cc1ccc(-c2ccc(CCC(=O)O)n2CC2CCCO2)cc1 (stereo not shown) [CBK268636],101
8,Oc1c(C(Nc2cccnc2)c2cccs2)ccc2cccnc12 (stereo not shown) [CBK268637],72.4
9,Cc1ccc(SC(C)C(=O)Nc2nc[nH]n2)cc1 (stereo not shown) [CBK268638],107
10,O=C(COc1ccccc1[N+](=O)[O-])Nc1cc(-c2nc3cc(Cl)ccc3o2)ccc1Cl [CBK268639],116
11,Cc1ccc(OC(C)C(=O)N(C)c2ccccc2)cc1 (stereo not shown) [CBK268645],111
12,COc1cc(OC)c(NC(=O)C(C)Oc2cccc(C)c2)cc1Cl (stereo not shown) [CBK268646],107
13,COc1cc(NC(=O)COc2cc(C)cc(C)c2)c(C(=O)O)cc1OC [CBK268650],93.8
14,Cc1cccc(NC(=O)Cn2cc(C(=O)COc3ccccc3)c3ccccc32)c1 [CBK268654],104
15,Cc1ccc(SCC(=O)Nc2cc([N+](=O)[O-])ccc2O)cc1 [CBK268655],123
16,O=C(CSCc1ccccc1Cl)Nc1ccc(-c2nnc(-c3ccccc3)o2)cc1 [CBK268656],111
17,CC(CNC(=O)C(C)Oc1ccccc1)CN(C)C (stereo not shown) [CBK268658],94

row,SMILES,"viability at 28.5 h, 10 µM [%]"
1,COc1cccc(C(=O)Nc2ccc(O)cc2C(=O)O)c1 [CBK268662],104
2,O=C(Nc1ccc2oc(-c3cccnc3)nc2c1)c1ccc(N2CCOCC2)c([N+](=O)[O-])c1 [CBK268664],100
3,COc1ccc(-c2noc(CSc3nc4ccccc4c(=O)n3-c3ccccc3)n2)cc1OC [CBK268667],100
4,CCn1c(SCc2nc(-c3ccc(Br)cc3)no2)nnc1-c1c[nH]c2ccccc12 [CBK268668],94.3
5,Cc1ccccc1CSCCNC(=O)Nc1ccc(Cl)cc1 [CBK268669],101
6,CC(=O)Nc1ccc(S(=O)(=O)Nc2ccc(-c3cn4cccnc4n3)cc2)cc1 [CBK268671],105
7,O=C(CCC(=O)c1ccc2c(c1)Cc1ccccc1-2)Nc1ccc(C(=O)O)cc1 [CBK268673],110
8,CN1C=NC2C1C(=O)N(CCn1c(=O)c3c(ncn3C)n(C)c1=O)C(=O)N2C (stereo not shown) [CBK268678],101
9,CSc1ncc(Cl)c(C(=O)NCCc2ccc(S(N)(=O)=O)cc2)n1 [CBK268679],104
10,Cn1c(=O)c2c(nc(NCCN)n2C)n(C)c1=O [CBK268680],107
11,O=C(N1CCCCCC1)N1CCN(S(=O)(=O)N2CCOCC2)CC1 [CBK268681],105
12,COC(=O)c1ccccc1NC(=O)CSc1nc(C)cc(C(F)(F)F)n1 [CBK268682],89.1
13,CC(=O)Nc1ccc(S(=O)(=O)NC2(C(F)(F)F)C(=O)Nc3c2c(=O)[nH]c(=S)n3C2CCCCC2)cc1 (stereo not shown) [CBK268683],97.2
14,O=C1c2cccc3cccc(c23)C(=O)N1CCCSc1nnc(-c2ccncc2)n1-c1ccccc1 [CBK268684],91
15,O=C(CSc1ccc(F)cc1)Nc1cc(Cl)ccc1O [CBK268685],87.5
16,Nc1nc2c(nc(SCCc3ccccc3)n2C2OC(CO)C(O)C2O)c(=O)[nH]1 (stereo not shown) [CBK268686],101
17,Nc1nc(SCc2cccc([N+](=O)[O-])c2)n[nH]1 [CBK268688],105

# — article PMC12040169 (PLOS Biology, 2025)
